Where “and” joins values, the source holds several entries; their conditions need not be identical. Equal values may be shown once. Toxic doses and inconclusive results are not listed. Rule for the calls: active = survival T/C of 150% or more; inactive = T/C below 125% in these data.
Tested on: P388 leukemia ip, CD2F1 mice, survival T/C
Experiment: NCI In Vivo Anticancer Drug Screen. Data for tumor model P388 Leukemia (intraperitoneal) in CD2F1 (CDF1) mice
Settings: endpoint: median survival time, higher = longer survival
How it was run: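 Mice carrying the transplanted tumor received test compound or vehicle. Survival was recorded in each group, and the value is the treated-group measurement divided by that of the vehicle-treated control group.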

[1] = dose: 50.0 mg/kg/injection, schedule: Q01DX005 (ip), vehicle: Klucel (hydroxypropylcellulose) (HPC)
[2] = dose: 100.0 mg/kg/injection, schedule: Q01DX005 (ip), vehicle: Klucel (hydroxypropylcellulose) (HPC)
[3] = dose: 200.0 mg/kg/injection, schedule: Q01DX005 (ip), vehicle: Klucel (hydroxypropylcellulose) (HPC)
[4] = dose: 50.0 mg/kg/injection, schedule: Q01DX005 (ip), vehicle: saline with Tween-80
[5] = dose: 100.0 mg/kg/injection, schedule: Q01DX005 (ip), vehicle: saline with Tween-80
[6] = dose: 200.0 mg/kg/injection, schedule: Q01DX005 (ip), vehicle: saline with Tween-80
[7] = dose: 12.5 mg/kg/injection, schedule: Q01DX009 (ip), vehicle: Klucel (hydroxypropylcellulose) (HPC)
[8] = dose: 25.0 mg/kg/injection, schedule: Q01DX009 (ip), vehicle: Klucel (hydroxypropylcellulose) (HPC)
[9] = dose: 25.0 mg/kg/injection, schedule: Q01DX005 (ip), vehicle: Klucel (hydroxypropylcellulose) (HPC)
[10] = dose: 60.0 mg/kg/injection, schedule: Q01DX005 (ip), vehicle: saline with Tween-80
[11] = dose: 120.0 mg/kg/injection, schedule: Q01DX005 (ip), vehicle: saline with Tween-80
[12] = dose: 240.0 mg/kg/injection, schedule: Q01DX005 (ip), vehicle: saline with Tween-80

Measured: T/C

Cc1ccccc1N=C(c1ccccc1)C1C(=O)c2ccccc2C1=O
inactive: dose: 50.0 mg/kg/injection, schedule: Q01DX005 (ip), vehicle: DMSO 100 % of control | [1] 103 % of control | dose: 100.0 mg/kg/injection, schedule: Q01DX005 (ip), vehicle: DMSO 98 % of control | [2] 106 % of control | dose: 200.0 mg/kg/injection, schedule: Q01DX005 (ip), vehicle: DMSO 97 % of control | [3] 103 % of control | dose: 400.0 mg/kg/injection, schedule: Q01DX005 (ip), vehicle: DMSO 101 % of control | dose: 800.0 mg/kg/injection, schedule: Q01DX005 (ip), vehicle: DMSO 97 % of control

COc1ccc(NC(=S)NC2C(OC(C)=O)OC(COC(C)=O)C(OC(C)=O)C2OC(C)=O)cc1 (centres undefined)
inactive: [4] 92 % of control | [5] 92 % of control | [6] 89 % of control

COc1ccccc1Nc1nc(-c2ccc([N+](=O)[O-])o2)cs1
inactive: [4] 93 % of control | [5] 86 % of control | [6] 88 % of control

F[C](F)(F)[Hg][Br]
inactive: dose: 6.25 mg/kg/injection, schedule: Q04DX002 (ip), vehicle: saline 100 % of control | dose: 12.5 mg/kg/injection, schedule: Q04DX002 (ip), vehicle: saline 92 % of control | dose: 25.0 mg/kg/injection, schedule: Q04DX002 (ip), vehicle: saline 106 % of control

O=C(NNC(=O)c1cccc(C(=O)NNC(=O)c2ccc(Cl)c(Cl)c2)n1)c1ccc(Cl)c(Cl)c1
inactive: [7] 106 % of control and 98 % of control | [8] 108 % of control and 95 % of control | dose: 50.0 mg/kg/injection, schedule: Q01DX009 (ip), vehicle: Klucel (hydroxypropylcellulose) (HPC) 105 % of control and 122 % of control | dose: 100.0 mg/kg/injection, schedule: Q01DX009 (ip), vehicle: Klucel (hydroxypropylcellulose) (HPC) 119 % of control

CCO[Si](O[Si](OCC)(c1ccccc1)c1ccccc1)(c1ccccc1)c1ccccc1
inactive: dose: 50.0 mg/kg/injection, schedule: Q01DX009 (ip), vehicle: saline 93 % of control | dose: 100.0 mg/kg/injection, schedule: Q01DX009 (ip), vehicle: saline 102 % of control | dose: 200.0 mg/kg/injection, schedule: Q01DX009 (ip), vehicle: saline 91 % of control

Cn1c(=O)c2c(nc(NCC[N+](C)(C)Cc3ccc(Cl)cc3)n2C)n(C)c1=O
inactive: dose: 6.25 mg/kg/injection, schedule: Q01DX009 (ip), vehicle: Klucel (hydroxypropylcellulose) (HPC) 93 % of control | [7] 101 % of control | [8] 113 % of control and 94 % of control

Oc1c(Cl)c(Cl)c2ncccc2c1Cl
inactive: [4] 102 % of control | [5] 107 % of control | [6] 110 % of control

NC(=O)CCSC(N)=S
inactive: [1] 100 % of control | [2] 109 % of control | [3] 100 % of control

C=C(C)c1nc(N)nc(-c2ccc([N+](=O)[O-])cc2)n1
inactive: dose: 100.0 mg/kg/injection, schedule: Q04DX002 (ip), vehicle: Klucel (hydroxypropylcellulose) (HPC) 88 % of control | dose: 200.0 mg/kg/injection, schedule: Q04DX002 (ip), vehicle: Klucel (hydroxypropylcellulose) (HPC) 88 % of control | dose: 400.0 mg/kg/injection, schedule: Q04DX002 (ip), vehicle: Klucel (hydroxypropylcellulose) (HPC) 88 % of control

COc1ccc2c3c([nH]c2c1)[C@H](CC(C)(C)O)N1C(=O)[C@@H]2CCCN2C(=O)[C@]1(O)[C@H]3O
inactive: dose: 6.25 mg/kg/injection, schedule: Q01DX005 (ip), vehicle: Klucel (hydroxypropylcellulose) (HPC) 100 % of control | dose: 12.5 mg/kg/injection, schedule: Q01DX005 (ip), vehicle: Klucel (hydroxypropylcellulose) (HPC) 105 % of control | [9] 108 % of control | [1] 116 % of control

CC(=O)O.CC(=O)O.CC(=O)O.CC(=O)O.[Cu].[Cu]
inactive: dose: 6.25 mg/kg/injection, schedule: Q04DX002 (ip), vehicle: Klucel (hydroxypropylcellulose) (HPC) 91 % of control | dose: 12.5 mg/kg/injection, schedule: Q04DX002 (ip), vehicle: Klucel (hydroxypropylcellulose) (HPC) 100 % of control

OC(c1cc(-c2cccc(Cl)c2)nc2ccccc12)C1CCCCN1 (centres undefined)
inactive: [1] 112 % of control | [2] 107 % of control

CCOc1cc2cc(CCO)c(C)cc2cn1
inactive: dose: 6.25 mg/kg/injection, schedule: Q01DX009 (ip), vehicle: distilled water + Tween-80 110 % of control | dose: 12.5 mg/kg/injection, schedule: Q01DX009 (ip), vehicle: distilled water + Tween-80 108 % of control | dose: 25.0 mg/kg/injection, schedule: Q01DX009 (ip), vehicle: distilled water + Tween-80 94 % of control | dose: 50.0 mg/kg/injection, schedule: Q01DX009 (ip), vehicle: distilled water + Tween-80 94 % of control | dose: 100.0 mg/kg/injection, schedule: Q01DX009 (ip), vehicle: distilled water + Tween-80 100 % of control and 90 % of control | dose: 200.0 mg/kg/injection, schedule: Q01DX009 (ip), vehicle: distilled water + Tween-80 95 % of control | dose: 400.0 mg/kg/injection, schedule: Q01DX009 (ip), vehicle: distilled water + Tween-80 104 % of control

CC(C)N(Cc1ccccc1)S(=O)(=O)c1n[nH]c(C(C)(C)C)n1
inactive: [4] 94 % of control | [5] 86 % of control

COc1cccc(C2OC3=C(Nc4ccccc4N3)C2=O)c1 (centres undefined)
inactive: [9] 98 % of control | [1] 100 % of control | dose: 60.0 mg/kg/injection, schedule: Q01DX005 (ip), vehicle: Klucel (hydroxypropylcellulose) (HPC) 97 % of control | [2] 94 % of control | dose: 120.0 mg/kg/injection, schedule: Q01DX005 (ip), vehicle: Klucel (hydroxypropylcellulose) (HPC) 95 % of control | [3] 94 % of control | dose: 240.0 mg/kg/injection, schedule: Q01DX005 (ip), vehicle: Klucel (hydroxypropylcellulose) (HPC) 94 % of control | dose: 400.0 mg/kg/injection, schedule: Q01DX005 (ip), vehicle: Klucel (hydroxypropylcellulose) (HPC) 98 % of control

ClCCN(CCCl)CC(Cl)COc1cccc2ccccc12 (centres undefined)
inactive: dose: 0.62 mg/kg/injection, schedule: Q01DX009 (ip), vehicle: saline 106 % of control and 108 % of control | dose: 1.25 mg/kg/injection, schedule: Q01DX009 (ip), vehicle: saline 100 % of control and 108 % of control | dose: 2.5 mg/kg/injection, schedule: Q01DX009 (ip), vehicle: saline 86 % of control and 97 % of control

COc1ccc(NS(=O)(=O)c2ccc(NCc3c4ccccc4nc4cc(Cl)ccc34)cc2)nn1
inactive: [10] 98 % of control | [11] 94 % of control | [12] 94 % of control

COc1ccc(-c2c([O-])oc(-c3ccccc3)[n+]2C)cc1
inactive: [10] 98 % of control | [11] 96 % of control | [12] 98 % of control

CCCCCCCC/C=C/CC1CCCC(C)N1 (centres undefined) (tested in a mixture with another compound)
inactive: dose: 7.5 mg/kg/injection, schedule: Q01DX005 (ip), vehicle: saline with Tween-80 100 % of control | dose: 15.0 mg/kg/injection, schedule: Q01DX005 (ip), vehicle: saline with Tween-80 100 % of control | dose: 30.0 mg/kg/injection, schedule: Q01DX005 (ip), vehicle: saline with Tween-80 98 % of control and 102 % of control

CC(=O)C1=C(C)O/C(=C/c2ccc(Cl)cc2)C1=O
inactive: dose: 25.0 mg/kg/injection, schedule: Q01DX005 (ip), vehicle: saline with Tween-80 118 % of control | [4] 118 % of control and 120 % of control | [5] 119 % of control and 124 % of control

Cc1onc(-c2c(F)cccc2Cl)c1-c1ncc(-c2ccc(Cl)cc2)o1
inactive: [10] 98 % of control | [11] 94 % of control | [12] 99 % of control
